Assay results taken from PubChem BioAssay AID1918935 (Molecular Pharmacology Branch, DTP, NCI, 2023).
Values joined by “and” are separate entries in the source; they are usually repeats but may differ in a detail not shown here. Identical values can stand only once.

Test system: 324938-238-R-J1-PDC complex spheroid viability
Experiment: Anticancer human tumor 324938-238-R-J1-PDC patient-derived bladder carcinoma cell line growth inhibition
Conditions: for viability, T/C: stronger effect = lower value
Method in brief: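 Complex spheroids of tumor cells with HUVEC and human MSCs, exposed to iadademstat combined with other agents. Each agent tested in half-log steps from near clinical Cmax (else 10 microM top), DMSO ≤0.25%.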

[1] = curve of first compound, second compound 0.1 µM
[2] = curve of first compound, second compound 0.316 µM
[3] = curve of first compound, second compound 1 µM
[4] = curve of first compound, second compound 3.16 µM
[5] = curve of first compound, second compound 10 µM
[6] = second compound 0.1 µM, first compound 0.0316 µM
[7] = second compound 0.1 µM, first compound 0.1 µM
[8] = second compound 0.1 µM, first compound 0.316 µM
[9] = second compound 0.1 µM, first compound 1 µM
[10] = second compound 0.316 µM, first compound 0.0316 µM
[11] = second compound 0.316 µM, first compound 0.1 µM
[12] = second compound 0.316 µM, first compound 0.316 µM
[13] = second compound 0.316 µM, first compound 1 µM
[14] = second compound 1 µM, first compound 0.0316 µM
[15] = second compound 1 µM, first compound 0.1 µM
[16] = second compound 1 µM, first compound 0.316 µM
[17] = second compound 1 µM, first compound 1 µM
[18] = second compound 3.16 µM, first compound 0.0316 µM
[19] = second compound 3.16 µM, first compound 0.1 µM
[20] = second compound 3.16 µM, first compound 0.316 µM
[21] = second compound 3.16 µM, first compound 1 µM
[22] = second compound 10 µM, first compound 0.0316 µM
[23] = second compound 10 µM, first compound 0.1 µM
[24] = second compound 10 µM, first compound 0.316 µM
[25] = second compound 10 µM, first compound 1 µM
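Note: spheroids also contain HUVEC and human MSCs and agents combined with iadademstat; spheroids exposed to agents for 7 days before readout.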

Row | SMILES | IC50 [1] | IC50 [2] | IC50 [3] | IC50 [4] | IC50 [5] | viability, T/C [6] | viability, T/C [7] | viability, T/C [8] | viability, T/C [9] | viability, T/C [10] | viability, T/C [11] | viability, T/C [12] | viability, T/C [13] | viability, T/C [14] | viability, T/C [15] | viability, T/C [16] | viability, T/C [17] | viability, T/C [18] | viability, T/C [19] | viability, T/C [20] | further results
1 | COc1cc(Nc2ncc3c(n2)-c2ccc(Cl)cc2C(c2c(F)cccc2OC)=NC3)ccc1C(=O)O + NC1CCC(NC2CC2c2ccccc2)CC1 | 20.8 nM | 18.8 nM | 18.5 nM | 15.4 nM | 20.7 nM | 39.9% | 23% | 20.4% | 17.9% | 37.4% | 20.5% | 18.3% | 20.9% | 38.5% | 19.6% | 21.9% | 19.4% | 39.9% | 24.9% | 21.7% | viability, T/C (second compound 0.1 µM, first compound 0.00316 µM): 75.9%; viability, T/C (second compound 0.1 µM, first compound 0.01 µM): 67.5%; viability, T/C (second compound 0.316 µM, first compound 0.00316 µM): 79.8%; viability, T/C (second compound 0.316 µM, first compound 0.01 µM): 65.7%; viability, T/C (second compound 1 µM, first compound 0.00316 µM): 73.3%; viability, T/C (second compound 1 µM, first compound 0.01 µM): 63.5%; viability, T/C (second compound 3.16 µM, first compound 0.00316 µM): 74.2%; viability, T/C (second compound 3.16 µM, first compound 0.01 µM): 56.1%; viability, T/C [21]: 21.2%; viability, T/C (second compound 10 µM, first compound 0.00316 µM): 70.7%; viability, T/C (second compound 10 µM, first compound 0.01 µM): 65.3%; viability, T/C [22]: 40%; viability, T/C [23]: 31%; viability, T/C [24]: 22.7%; viability, T/C [25]: 23.1%
2 | COc1ccc([C@@H](O)c2cc(-c3ncnc4cc(N5CCOCC5)ccc34)c(F)cc2Cl)nn1 + NC1CC1c1ccc(-c2cccc(O)c2)cc1 | 1440 nM | 481 nM | 411 nM | 313 nM | 439 nM | 82.3% | 77.6% | 65.2% | 54% | 71.3% | 61.8% | 52% | 45.7% | 63.6% | 60.5% | 49.6% | 43.2% | 62.6% | 59.4% | 49.4% | viability, T/C (second compound 0.1 µM, first compound 3.16 µM): 41.5%; viability, T/C (second compound 0.1 µM, first compound 10 µM): 25.7%; viability, T/C (second compound 0.316 µM, first compound 3.16 µM): 34.9%; viability, T/C (second compound 0.316 µM, first compound 10 µM): 25%; viability, T/C (second compound 1 µM, first compound 3.16 µM): 37.5%; viability, T/C (second compound 1 µM, first compound 10 µM): 23.4%; viability, T/C [21]: 39.7%; viability, T/C (second compound 3.16 µM, first compound 3.16 µM): 35.3%; viability, T/C (second compound 3.16 µM, first compound 10 µM): 25.6%; viability, T/C [22]: 64.2%; viability, T/C [23]: 60.2%; viability, T/C [24]: 55.6%; viability, T/C [25]: 38.5%; viability, T/C (second compound 10 µM, first compound 3.16 µM): 32.7%; viability, T/C (second compound 10 µM, first compound 10 µM): 21.8%
3 | COc1ccc([C@@H](O)c2cc(-c3ncnc4cc(N5CCOCC5)ccc34)c(F)cc2Cl)nn1 | – | – | – | – | – | – | – | – | – | – | – | – | – | – | – | – | – | – | – | – | viability, T/C (compound 0.0316 µM): 102%; viability, T/C (compound 0.1 µM): 95.8% and 99.8%; viability, T/C (compound 0.316 µM): 86.6% and 81.7%; viability, T/C (compound 1 µM): 69.1% and 64.7%; viability, T/C (compound 3.16 µM): 50.8% and 45.9%; viability, T/C (compound 10 µM): 32.3% and 27.2%; IC50 (curve of compound): 3240 nM and 2340 nM
